Assay results published in patent publication US6645690B2, “Photographic member with flexibilizer material” (Eastman Kodak Company, priority 2001, dated 2003).
Counter-ions that a name gives are not always drawn. Like-named read-outs stand apart in the source and are kept apart here.

Columns and labels:
[1] = Log P (octanol-water partition coefficient) of flexibilizer agents

Compound	logP (physchem; octanol/water)	logP (physchem)	also measured
2,3-dimethylpropanediol [FA2]	–	–	Log P [1]: 0.13
OCCO [FA8, Ethylene glycol, reference compound]	–	-1.2	–
COC(=O)c1ccc(O)cc1 [FA9, Methyl-4-hydroxybenzoate sodium salt, reference compound]	–	-1.34	–
OCCOc1ccccc1 [FA6, 2-phenoxyethanol]	–	1.1	–
OCCOCCO [FA10, 2,2′-oxydiethanol, reference compound]	–	-1.47	–
CC(O)CCO (stereo not shown) [FA1, 1,3-butanediol]	–	-0.29	–

Further lines, with some results ahead:

logP (physchem; octanol/water)	Compound	logP (physchem)	also measured
0.69	CCCCC(O)CO (stereo not shown) [FA4, 1,2-hexanediol]	–	–
0.27	OCCCCCO [FA3, 1,5-pentanediol]	–	–
2.73	CCCCC(CC)CO (stereo not shown) [FA7, 2-ethyl-1-hexanol]	–	–
0.76	OCCCCCCO [FA5, 1,6-hexanediol]	–	–
